PubChem BioAssay AID2060900 (Molecular Pharmacology Branch, DTP, NCI, 2025)

System: 521955-158-R2-J5-PDC complex spheroids, viability
Test: Anticancer human tumor 521955-158-R2-J5-PDC patient-derived pancreatic carcinoma cell line growth inhibition [RAS]
Settings: for IC50: curve of first compound; for viability, T/C: stronger effect = lower value
Summary of the method: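 Multi-cell-type spheroids: tumor cells plus HUVEC endothelial cells and mesenchymal stem cells. RAS-pathway inhibitors were combined with targeted agents, each dosed in half-log steps down from clinical Cmax, or from 10 microM when Cmax was unknown.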

[1] = second compound 0.000949 µM, first compound 0.0316 µM
[2] = second compound 0.000949 µM, first compound 0.1 µM
[3] = second compound 0.000949 µM, first compound 0.316 µM
[4] = second compound 0.000949 µM, first compound 1 µM
[5] = second compound 0.000949 µM, first compound 3.16 µM
[6] = second compound 0.000949 µM, first compound 10 µM
[7] = second compound 0.003 µM, first compound 0.0316 µM
[8] = second compound 0.003 µM, first compound 0.1 µM
[9] = second compound 0.003 µM, first compound 0.316 µM
[10] = second compound 0.003 µM, first compound 1 µM
[11] = second compound 0.003 µM, first compound 3.16 µM
[12] = second compound 0.003 µM, first compound 10 µM
[13] = second compound 0.00949 µM, first compound 0.0316 µM
[14] = second compound 0.00949 µM, first compound 0.1 µM
[15] = second compound 0.00949 µM, first compound 0.316 µM
[16] = second compound 0.00949 µM, first compound 1 µM
[17] = second compound 0.00949 µM, first compound 3.16 µM
[18] = second compound 0.00949 µM, first compound 10 µM
[19] = second compound 0.03 µM, first compound 0.0316 µM
[20] = second compound 0.03 µM, first compound 0.1 µM
[21] = second compound 0.03 µM, first compound 0.316 µM
[22] = second compound 0.03 µM, first compound 1 µM
[23] = second compound 0.03 µM, first compound 3.16 µM
[24] = second compound 0.03 µM, first compound 10 µM
[25] = second compound 0.0949 µM, first compound 0.0316 µM
[26] = second compound 0.0949 µM, first compound 0.1 µM
[27] = second compound 0.0949 µM, first compound 0.316 µM
[28] = second compound 0.0949 µM, first compound 1 µM
[29] = second compound 0.0949 µM, first compound 3.16 µM
[30] = second compound 0.0949 µM, first compound 10 µM
[31] = second compound 0.3 µM, first compound 0.0316 µM
[32] = second compound 0.3 µM, first compound 0.1 µM
[33] = second compound 0.3 µM, first compound 0.316 µM
[34] = second compound 0.3 µM, first compound 1 µM
[35] = second compound 0.3 µM, first compound 3.16 µM
[36] = second compound 0.3 µM, first compound 10 µM
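Further: compound exposure lasted seven days before the viability read.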
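Wherever viability, T/C is given: spheroids also contain HUVEC endothelial cells and mesenchymal stem cells as stroma.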

CC1(O)CCCC1n1c(=O)c(C(F)F)cc2cnc(NC3CCN(S(C)(=O)=O)CC3)nc21 (stereo not given) + CCn1c(-c2cccnc2C(C)OC)c2c3cc(ccc31)N1CCOC(CC(NC(=O)C(C(C)C)N(C)C(=O)C3(F)CCN(C(=O)C#CC(C)(C)N(C)C)CC3)C(=O)N3CCCC(N3)C(=O)OCC(C)(C)C2)C1
IC50 (second compound 0.000949 µM): 4.9 µM
IC50 (second compound 0.003 µM): 5.09 µM
IC50 (second compound 0.00949 µM): 4.91 µM
IC50 (second compound 0.03 µM): 4.99 µM
IC50 (second compound 0.0949 µM): 4.43 µM
IC50 (second compound 0.3 µM): 3.76 µM
viability, T/C [1]: 68.5%
viability, T/C [2]: 66.1%
viability, T/C [3]: 61.6%
viability, T/C [4]: 59.4%
viability, T/C [5]: 103%
viability, T/C [6]: 14.8%
viability, T/C [7]: 89.5%
viability, T/C [8]: 67.8%
viability, T/C [9]: 49.5%
viability, T/C [10]: 82.7%
viability, T/C [11]: 89.2%
viability, T/C [12]: 13.5%
viability, T/C [13]: 88.1%
viability, T/C [14]: 71.1%
viability, T/C [15]: 60.2%
viability, T/C [16]: 62.1%
viability, T/C [17]: 93.5%
viability, T/C [18]: 9.48%
viability, T/C [19]: 89.7%
viability, T/C [20]: 77.1%
viability, T/C [21]: 47.7%
viability, T/C [22]: 76.1%
viability, T/C [23]: 78.9%
viability, T/C [24]: 13.6%
viability, T/C [25]: 67.6%
viability, T/C [26]: 61.1%
viability, T/C [27]: 47.3%
viability, T/C [28]: 63.1%
viability, T/C [29]: 90.5%
viability, T/C [30]: 11.6%
viability, T/C [31]: 60.8%
viability, T/C [32]: 37.9%
viability, T/C [33]: 45.5%
viability, T/C [34]: 58%
viability, T/C [35]: 88.2%
viability, T/C [36]: 9.67%

CCC(CC)c1cc(NC2CCC(N)C2)n2nccc2n1 (stereo not given) + CCn1c(-c2cccnc2C(C)OC)c2c3cc(ccc31)N1CCOC(CC(NC(=O)C(C(C)C)N(C)C(=O)C3(F)CCN(C(=O)C#CC(C)(C)N(C)C)CC3)C(=O)N3CCCC(N3)C(=O)OCC(C)(C)C2)C1
IC50 (second compound 0.000949 µM): 1.9 µM
IC50 (second compound 0.003 µM): 1.91 µM
IC50 (second compound 0.00949 µM): 1.96 µM
IC50 (second compound 0.03 µM): 1.93 µM
IC50 (second compound 0.0949 µM): 1.73 µM
IC50 (second compound 0.3 µM): 1.7 µM
viability, T/C [1]: 93.9%
viability, T/C [2]: 92.6%
viability, T/C [3]: 104%
viability, T/C [4]: 122%
viability, T/C [5]: 6.03%
viability, T/C [6]: 9.22%
viability, T/C [7]: 94.6%
viability, T/C [8]: 108%
viability, T/C [9]: 106%
viability, T/C [10]: 116%
viability, T/C [11]: 5.99%
viability, T/C [12]: 6.76%
viability, T/C [13]: 113%
viability, T/C [14]: 97.7%
viability, T/C [15]: 116%
viability, T/C [16]: 117%
viability, T/C [17]: 7.29%
viability, T/C [18]: 6.73%
viability, T/C [19]: 99.2%
viability, T/C [20]: 101%
viability, T/C [21]: 105%
viability, T/C [22]: 117%
viability, T/C [23]: 8.41%
viability, T/C [24]: 5.64%
viability, T/C [25]: 83.1%
viability, T/C [26]: 75.6%
viability, T/C [27]: 97.4%
viability, T/C [28]: 100%
viability, T/C [29]: 6.48%
viability, T/C [30]: 6.71%
viability, T/C [31]: 84.9%
viability, T/C [32]: 75.4%
viability, T/C [33]: 88.1%
viability, T/C [34]: 88.6%
viability, T/C [35]: 9.96%
viability, T/C [36]: 5.87%

CCN1CCN(Cc2ccc(Nc3ncc(F)c(-c4cc(F)c5nc(C)n(C(C)C)c5c4)n3)nc2)CC1 + CCn1c(-c2cccnc2C(C)OC)c2c3cc(ccc31)N1CCOC(CC(NC(=O)C(C(C)C)N(C)C(=O)C3(F)CCN(C(=O)C#CC(C)(C)N(C)C)CC3)C(=O)N3CCCC(N3)C(=O)OCC(C)(C)C2)C1
IC50 (second compound 0.000949 µM): > 1 µM
IC50 (second compound 0.003 µM): > 1 µM
IC50 (second compound 0.00949 µM): > 1 µM
IC50 (second compound 0.03 µM): > 1 µM
IC50 (second compound 0.0949 µM): > 1 µM
IC50 (second compound 0.3 µM): > 1 µM
viability, T/C (second compound 0.000949 µM, first compound 0.00316 µM): 96.8%
viability, T/C (second compound 0.000949 µM, first compound 0.01 µM): 87.4%
viability, T/C [1]: 61.9%
viability, T/C [2]: 80.1%
viability, T/C [3]: 87.8%
viability, T/C [4]: 74.5%
viability, T/C (second compound 0.003 µM, first compound 0.00316 µM): 88.6%
viability, T/C (second compound 0.003 µM, first compound 0.01 µM): 89.2%
viability, T/C [7]: 81.9%
viability, T/C [8]: 75.7%
viability, T/C [9]: 79.1%
viability, T/C [10]: 70.7%
viability, T/C (second compound 0.00949 µM, first compound 0.00316 µM): 85.5%
viability, T/C (second compound 0.00949 µM, first compound 0.01 µM): 80.1%
viability, T/C [13]: 74.2%
viability, T/C [14]: 79.5%
viability, T/C [15]: 69.1%
viability, T/C [16]: 74%
viability, T/C (second compound 0.03 µM, first compound 0.00316 µM): 73.8%
viability, T/C (second compound 0.03 µM, first compound 0.01 µM): 89.7%
viability, T/C [19]: 76.9%
viability, T/C [20]: 75.1%
viability, T/C [21]: 73.1%
viability, T/C [22]: 73.6%
viability, T/C (second compound 0.0949 µM, first compound 0.00316 µM): 66.8%
viability, T/C (second compound 0.0949 µM, first compound 0.01 µM): 73.9%
viability, T/C [25]: 73.7%
viability, T/C [26]: 74.6%
viability, T/C [27]: 71.6%
viability, T/C [28]: 69.4%
viability, T/C (second compound 0.3 µM, first compound 0.00316 µM): 71.5%
viability, T/C (second compound 0.3 µM, first compound 0.01 µM): 60.8%
viability, T/C [31]: 59.9%
viability, T/C [32]: 58.1%
viability, T/C [33]: 61.6%
viability, T/C [34]: 61.1%

C[C@@H](NC(=O)c1ncnc(N)c1Cl)c1ncc(C(=O)Nc2cc(C(F)(F)F)c(Cl)cn2)s1 + CCn1c(-c2cccnc2C(C)OC)c2c3cc(ccc31)N1CCOC(CC(NC(=O)C(C(C)C)N(C)C(=O)C3(F)CCN(C(=O)C#CC(C)(C)N(C)C)CC3)C(=O)N3CCCC(N3)C(=O)OCC(C)(C)C2)C1
IC50 (second compound 0.000949 µM): 5.93 µM
IC50 (second compound 0.003 µM): > 10 µM
IC50 (second compound 0.00949 µM): > 10 µM
IC50 (second compound 0.03 µM): 10 µM
IC50 (second compound 0.0949 µM): > 10 µM
IC50 (second compound 0.3 µM): 1.51 µM
viability, T/C [1]: 137%
viability, T/C [2]: 100%
viability, T/C [3]: 84.3%
viability, T/C [4]: 70.1%
viability, T/C [5]: 55.1%
viability, T/C [6]: 53.1%
viability, T/C [7]: 111%
viability, T/C [8]: 121%
viability, T/C [9]: 85.6%
viability, T/C [10]: 73.2%
viability, T/C [11]: 64.2%
viability, T/C [12]: 56.1%
viability, T/C [13]: 118%
viability, T/C [14]: 94.8%
viability, T/C [15]: 89%
viability, T/C [16]: 60.1%
viability, T/C [17]: 70.7%
viability, T/C [18]: 63.6%
viability, T/C [19]: 91.1%
viability, T/C [20]: 126%
viability, T/C [21]: 69.1%
viability, T/C [22]: 59.6%
viability, T/C [23]: 68.6%
viability, T/C [24]: 48%
viability, T/C [25]: 122%
viability, T/C [26]: 99%
viability, T/C [27]: 79.6%
viability, T/C [28]: 56.7%
viability, T/C [29]: 60.4%
viability, T/C [30]: 58.8%
viability, T/C [31]: 131%
viability, T/C [32]: 98%
viability, T/C [33]: 71.6%
viability, T/C [34]: 46.8%
viability, T/C [35]: 48.1%
viability, T/C [36]: 46.1%

Cc1nc(N2CCC3(CC2)COC(C)C3N)c(CO)nc1Sc1ccnc(N)c1Cl (stereo not given) + CCn1c(-c2cccnc2C(C)OC)c2c3cc(ccc31)N1CCOC(CC(NC(=O)C(C(C)C)N(C)C(=O)C3(F)CCN(C(=O)C#CC(C)(C)N(C)C)CC3)C(=O)N3CCCC(N3)C(=O)OCC(C)(C)C2)C1
IC50 (second compound 0.000949 µM): > 10 µM
IC50 (second compound 0.003 µM): 5.11 µM
IC50 (second compound 0.00949 µM): 3.12 µM
IC50 (second compound 0.03 µM): 1.19 µM
IC50 (second compound 0.0949 µM): 4.39 µM
IC50 (second compound 0.3 µM): 0.546 µM
viability, T/C [1]: 72.8%
viability, T/C [2]: 64%
viability, T/C [3]: 50.8%
viability, T/C [4]: 59.4%
viability, T/C [5]: 52.6%
viability, T/C [6]: 50.8%
viability, T/C [7]: 74.3%
viability, T/C [8]: 61.3%
viability, T/C [9]: 73.6%
viability, T/C [10]: 61.4%
viability, T/C [11]: 49.4%
viability, T/C [12]: 46.4%
viability, T/C [13]: 75.7%
viability, T/C [14]: 61.8%
viability, T/C [15]: 61.6%
viability, T/C [16]: 50.4%
viability, T/C [17]: 50.1%
viability, T/C [18]: 48.4%
viability, T/C [19]: 83%
viability, T/C [20]: 64.4%
viability, T/C [21]: 54.2%
viability, T/C [22]: 49.2%
viability, T/C [23]: 50.8%
viability, T/C [24]: 47%
viability, T/C [25]: 68%
viability, T/C [26]: 66.3%
viability, T/C [27]: 55.8%
viability, T/C [28]: 54.1%
viability, T/C [29]: 55%
viability, T/C [30]: 45.6%
viability, T/C [31]: 59.1%
viability, T/C [32]: 46.3%
viability, T/C [33]: 53.9%
viability, T/C [34]: 51.6%
viability, T/C [35]: 45.4%
viability, T/C [36]: 42.8%
